Data set [1] concerns ATF5. In words: ATF5 expression in Caco2 cells by immunofluorescence staining (FIG. 11). The note with it: 5 μM CBD (FIG. 11). The data set is classed as cell-based, human. From the text: (§1) Referring to FIG. 11, we have further analyzed the mechanism of CBD treatment on Caco-2 cells by comparing the expression level of TRIB3 and AFT5 in Caco2 cells by the CBD treatment. Compared to FIG. 10, we have measured the expression of TRIB3 and AFT5 by immunofluorescence staining.

The test system of data set [2] is wild type MEFs. In words: Proliferation rate (population doubling level) of wild type MEFs. Format: cell-based, mouse. As to the method: (§2) In the step of determining cells' proliferation rate and the optimal concentration of molecules, the primary mouse embryonic fibroblasts (MEFs) at passage 3 were counted by using LUNA-II Automated Cell Counter. 1.0×10^5 cells were seeded to a well of 6-well plate. The cells were treated with DMSO as control, 10 μM or 50 μM CBD.
(§3) Referring to FIG. 2, after 4-day and 8-day treatment, the cells were counted again using automated cell counter. The population doubling level (PDL), which reflects the proliferation rate of cells, was calculated by the formula: n=3.32 (log UCY−log I)+X, where n=the PDL number, UCY=the cell yield at that time point, I=the initial cell number, and X=the doubling level of the cells used to initiate the subculture being quantitated.

Data set [3] relates to nCoV virus. Nature of the data set: nCoV infection of Huh7 cells, qPCR of viral gene copy number. Format: cell-based. As to the method: (§4) To examine CBD inhibitory effects on nCoV infection, Huh7 cells were chosen. 2.0×10^5 cells/well of Huh7 cells were seeded to 24-well plate. The Huh7 cells were treated with DMSO as control, 2.5 μM, 5 μM or 10 μM CBD for 1 hour. The Huh7 cells were then infected with 0.01 MOI of nCoV virus for 1 hour. The inoculum was discarded and the plate was washed with 1 mL PBS twice. The Huh7 cells were then cultured in DMEM/F-12 and treated with DMSO as control, 2.5 μM, 5 μM or 10 μM CBD. After 2, 24 and 48 hours after infection, the supernatant and cell lysate were collected for qPCR analysis for determination of viral gene copy number.
as §4, with “In the step of examining CBD” for “To examine CBD”, “nCoV infection in” for “nCoV infection,”, “Huh7 cells,” for “Huh7 cells were chosen.”

The test system of data set [4] is TRIB3. In words: TRIB3 expression level in Caco-2 cells (FIG. 10). The data set is classed as cell-based, human. The conditions noted are these: Caco2 cells, CBD treatment (FIG. 10). An excerpt: (§5) Referring to FIG. 10, we have further analyzed the mechanism of CBD treatment on Caco-2 cells by comparing the expression level of TRIB3 and AFT5 in Caco-2 cells by the CBD treatment. […] Similarly, ATF5 was also identified by the RNA sequencing results and it is closely associated with TRIB3.

In data set [5] the test system is TRIB3. In words: TRIB3 expression in Caco2 cells by immunofluorescence staining (FIG. 11). The data set is classed as cell-based, human. The note with it: 5 μM CBD (FIG. 11).
From the text: as §1

The test system of data set [6] is LMNA^G609G/G609G mice. In words: CBD treatment in LMNA G609G/G609G mice (health span). Format: in vivo, mouse. The conditions noted are these: IP twice a week. As to the method:
CBD was dissolved in 5% DMSO and 5% polyethylene glycol (PEG) in sterile saline and stored at −80° C. for up to 1 month. 2 months old LMNA^G609G/G609G mice were selected used. The mice then received an intraperitoneal injection (IP) twice a week until they reached the humane point.
In step of CBD treating in mice, 2 months old LMNA^G609G/G609G mice were selected and used. They received an intraperitoneal injection (IP) twice a week until they reached the humane point. Different dosages were used for the injection; 50 mg/kg of CBD was identified as the optimal dosage with the greatest extend in health span of the treated mice. CBD was dissolved in 5% DMSO and 5% polyethylene glycol (PEG) in sterile saline and stored at −80° C. for up to 1 month.

Data set [7] has as its system ATF5. Nature of the data set: ATF5 expression level in Caco-2 cells (FIG. 10). The note with it: Caco2 cells, CBD treatment (FIG. 10). The data set is classed as cell-based, human.
From the text: as §5

The subject of data set [8] is Caco-2 cells. In words: Proliferation rate (PDL) of Caco-2 cells. The data set is classed as cell-based, human. The conditions noted are these: 5 μM CBD. As to the method:
Referring to FIG. 8, which shown the proliferation rate of Caco-2 cells with CBD treatment. We have compared the population doubling level (PDL) of Caco-2 cells with CBD treatment at four different concentration, namely, 0 μM CBD, 5 μM CBD, 10 μM CBD, and 20 μM CBD. […] Therefore, the COVID-19 virus suppression effect observed in FIG. 7 was not caused by toxicity of CBD.

The subject of data set [9] is Lamin A 609 MEFs. In words: Proliferation rate (population doubling level) of Lamin A 609 MEFs. The data set is classed as cell-based, mouse. As to the method:
as §2, §3

For data set [10], the system named is Caco2 cells. In words: KI67 expression in Caco2 cells. The conditions noted are these: 5 μM CBD. Format: cell-based, human. As to the method: Referring to FIG. 9, to confirm that the COVID-19 virus suppression effect observed in FIG. 7 was not caused by toxicity of CBD, we have analyzed the expression of KI67 with CBD treatment at the concentration of 5 μM CBD. […] It is confirmed that the COVID-19 virus suppression effect observed in FIG. 7 was not caused by toxicity of CBD.

Data set [11] concerns SARS-Cov-2 pseudovirus. In words: Luciferase assay of SARS-Cov-2 pseudovirus infection of Caco2 cells. The data set is classed as cell-based.
Data set [12] relates to SARS-CoV-2. Nature of the data set: qPCR of viral gene copy in SARS-CoV-2 infected golden hamster. Format: in vivo. An excerpt:
Referring to FIG. 12, we tested the CBD's anti-COVID-19 effects in nasal turbinate of golden hamster by qPCR analysis of viral gene copy in nasal turbinate of SARS-CoV-2 infected golden hamster upon CBD treatment.
For orientation: In qPCR the cycle at which signal appears reflects the starting amount.

In data set [13] the test system is lung fibrosis. In words: Masson Trichrome staining of Covid-19 infected golden hamster lung. The data set is classed as in vivo. The note with it: lung of Covid-19 infected golden hamster, compared to control. An excerpt: Referring to FIG. 14, we have further tested CBD's anti-COVID-19 effects by analysis of Masson Trichrome staining of Covid-19 infected golden hamster lung treated with control or CBD.

The subject of data set [14] is TRIB3. Nature of the data set: RNA sequencing of TRIB3 expression in wild type MEFs. Format: cell-based, mouse. The conditions noted are these: wild type MEFs receiving CBD treatment. As to the method: (§6) RNA sequencing is carried out wherein the RNA samples were extracted using TRIzol and kept in 75% ethanol in diethylpyrocarbonate (DEPC) water at −20° C. For each condition, two biological replicates were prepared for RNA sequencing. The RNA samples were dissolved in DEPC water and carried out quality control analysis. The RNA quantitation was done using Nanodrop™ and Agilent® 2100 Bioanalyzer. The RNA integrity was measured using Agilent® 2100 Bioanalyzer. The RNA purity was measured using agarose gel electrophoresis and Agilent® 2100 Bioanalyzer.
(§7) The samples that had concentration over 50 ng/μl for volume over 20 μl, RIN value over 6.3, and OD260/280 value over 2.0 were considered to pass the quality control analysis and were used for RNA sequencing. Illumina sequencing system was used for paired-end reads of read lengths PE150. 6 GB of raw data was acquired from each sample. […]
(§8) In the step of RNA sequencing, the RNA samples were extracted using TRIzol and kept in 75% ethanol in diethylpyrocarbonate (DEPC) water at −20° C. […] The RNA quantitation was done using Nanodrop™ and Agilent® 2100 Bioanalyzer. The RNA integrity was measured using Agilent® 2100 Bioanalyzer. The RNA purity was measured using agarose gel electrophoresis and Agilent® 2100 Bioanalyzer. […]

Data set [15] deals with TRIB3. In words: RNA sequencing of TRIB3 expression in Lamin A 609 MEFs. The data set is classed as cell-based, mouse. The note with it: premature aging Lamin A 609 MEFs, CBD treatment. As to the method:
as §6, §7, §8

In data set [16] the test system is Covid-19. The conditions noted are these: human, in vivo; cited from earlier work.

In the case of `C=C(C)[C@@H]1CCC(C)=C[C@H]1c1c(O)cc(CCCCC)cc1O` [CBD, Cannabidiol], the “ATF5 level of expression, immunofluorescence staining” value in [1] is given as “increased”. Moreover, the “population doubling level (PDL)” value in data set [2] (high dosage 50 μM CBD) is listed as “significantly decreased”; in data set [2] (optimal dosage 10 μM CBD), “significantly increased”; in data set [9] (high dosage 50 μM CBD), “significantly decreased”; in [9] (optimal dosage 10 μM CBD), “significantly increased”. The “nCoV virus infection (viral gene copy number in cell lysate and supernatant)” value in data set [3] (Huh7 cells, 2.5, 5 or 10 μM CBD, 0.01 MOI, 2, 24 and 48 hours after infection) is given as “inhibited”. Also, in data set [3] (Huh7 cells, inhibition of nCoV infection), the “optimal dosage of CBD” value was determined as 5 µM. Also, the “expression level of TRIB3” value in data set [4] was “significantly upregulate”. Further, in data set [5], the “TRIB3 level of expression, immunofluorescence staining” value is “increased”. For the same compound, the “optimal dosage with the greatest extend in health span” value in data set [6] came to 50 mg/kg. Besides, in data set [7], the “expression level of ATF5” value is given as “significantly upregulate”. Moreover, the “proliferation of Caco-2 cells shown by population doubling level (PDL)” value in [8] is “didn't affect proliferation”. In addition, the “proliferation of Caco2 cells shown by KI67” value in [10] is on record as “didn't affect proliferation”. For the same compound, the “reduction of SARS-Cov-2 pseudovirus infection” value in data set [11] is recorded as 72%. Also, in [12] (lung), the “SARS-Cov-2 infection (viral gene copy) in lung” value was “suppress”. In [12] (nasal turbinate), the “SARS-CoV-2 infection (viral gene copy) in nasal turbinate” value is given as “reduced”. In [13], the “area and intensity of blue stain (fibrosis), Masson Trichrome staining” value is “significantly lowered”. The “TRIB3 expression (fpkm, RNA sequencing)” value in data set [14] was “upregulated”. Further, the “expression levels of TRIB3 (RNA sequencing)” value in data set [15] is given as “increase”.

As for `NC(=O)c1nc(F)c[nH]c1=O` [Favipiravir], the “efficacy in treating COVID-19” value in [16] was “not conclusive”.

Take Ivermectin: in data set [16], the “efficacy in treating COVID-19” value was “not conclusive”.

For the compound Lopinavir-ritonavir, the “efficacy in treating COVID-19” value in [16] is “not conclusive”.

Values taken from patent US20220170119A1, “Signaling Pathway of Cannabidiol (CBD) for Prevention and Treatment of COVID-19” (Hemix Biotech Limited, priority 2020, published 2022).
